Read-outs that look alike come from different tables or passages of the source.
Experiments:
[1] = tested on: choline acetyltransferase (ChAT) activity in dissociated rat embryonic spinal cord culture; assay: Spinal Cord ChAT Activity Assay; format: cell-based; settings: ChAT measured after 48 hours
[2] = tested on: ChAT activity of basal forebrain cultures; assay: Basal Forebrain ChAT Activity Assay; format: cell-based, rat
Experimental: Fused pyrrolocarbazoles were tested for the ability to increase ChAT activity of basal forebrain cultures.
Methods: The basal forebrain was dissected from rat embryos (day 17 or 18 embryos) and the cells were dissociated with a neutral protease (Dispase™, Collaborative Research). Neurons were plated at a density of 5×10^4 cells/well (1.5×10^5 cells/cm^2) in poly-1-ornithine and laminin coated plates. Cells were cultured in serum-free N2 medium containing 0.05% BSA at 37° C. in a humidified atmosphere, 5% CO2 /95% air. ChAT activity was assessed 5 days after plating by using the ChAT assay as described in Example III(A)(1).

chick DRG neurons = assay: DRG Neuron Survival Assay (calcein AM); format: cell-based; settings: 48 hours; for viability at 0.25 µM: 250 nM
Experimental: Fused pyrrolocarbazoles promoted dorsal root ganglion (DRG) neuronal survival in cultures of chick DRG neurons. Cell survival was measured by uptake of calcein AM, an analog of the viable dye, fluorescein diacetate. Calcein is taken up by viable cells and cleaved intracellularly to fluorescent salts which are retained by intact membranes of viable cells. Microscopic counts of viable neurons correlate directly with relative fluorescence values obtained with the fluorimetric viability assay. This method thus provides a reliable and quantitive measurement of cell survival in the total cell population of a given culture (Bozyczko-Coyne et al., J. Neur. Meth. 50:205-216, 1993).
Methods: Dorsal root ganglia were dissected from embryonic age day 9 chick embryos and dissociated cells prepared by subsequent Dispase (neutral protease, Collaborative Research) dissociation. Neurons were seeded at low density (3×10^4 cells/cm^2) into 96 well poly-L-ornithine and laminin coated plates. Cells were cultured for 48 hours in serum-free N2 medium (Bottenstein and Sato, 1979) at 37° C. in a humidified atmosphere, 5% CO2 /95% air. Cell survival was assessed at 48 hours using the viable fluorimetric assay described above.

protein kinase C = assay: PKC Activity Inhibition Assay; format: biochemical
Experimental: Fused pyrrolocarbazoles inhibited the activity of protein kinase C (Table VI). The protein kinase C assay has been disclosed (Murakata et al., U.S. Pat. No. 4,923,986; Kikkawa et al., J. Biol. Chem. 257:13341-13348 (1982)). The assay was performed with several concentrations of fused pyrrolocarbazoles. The concentration at which protein kinase C was 50% inhibited (IC50) was determined.

trkA tyrosine kinase = trkA tyrosine kinase (Homo sapiens, UniProt P04629); assay: trkA Tyrosine Kinase Activity Inhibition Assay (ELISA); format: biochemical
Chain of trkA tyrosine kinase (P04629 33-796): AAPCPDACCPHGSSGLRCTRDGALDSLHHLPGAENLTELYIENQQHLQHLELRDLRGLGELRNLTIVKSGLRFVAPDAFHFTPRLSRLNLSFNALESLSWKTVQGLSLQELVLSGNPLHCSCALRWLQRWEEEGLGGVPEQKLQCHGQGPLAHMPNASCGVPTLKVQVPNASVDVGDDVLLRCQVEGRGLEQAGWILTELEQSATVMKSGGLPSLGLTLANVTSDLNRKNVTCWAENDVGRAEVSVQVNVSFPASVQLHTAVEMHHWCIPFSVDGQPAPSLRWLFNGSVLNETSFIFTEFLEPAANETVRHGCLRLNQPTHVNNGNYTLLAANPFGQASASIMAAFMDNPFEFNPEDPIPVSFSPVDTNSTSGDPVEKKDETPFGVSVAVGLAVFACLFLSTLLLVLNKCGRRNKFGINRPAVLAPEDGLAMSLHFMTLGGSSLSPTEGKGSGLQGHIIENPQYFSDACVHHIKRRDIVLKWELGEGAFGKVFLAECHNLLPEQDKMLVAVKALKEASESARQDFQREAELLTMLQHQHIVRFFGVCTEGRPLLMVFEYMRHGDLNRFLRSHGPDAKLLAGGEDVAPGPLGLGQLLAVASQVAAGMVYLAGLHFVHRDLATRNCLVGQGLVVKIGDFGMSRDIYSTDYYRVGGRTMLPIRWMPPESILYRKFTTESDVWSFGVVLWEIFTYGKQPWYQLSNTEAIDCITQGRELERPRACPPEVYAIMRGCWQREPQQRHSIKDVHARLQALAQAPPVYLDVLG
Experimental: These compounds were then tested for the ability to inhibit substrate phosphorylation by the trkA tyrosine kinase.
Plates were washed three times with TBST, followed by two washes with TBS (TBST sans Tween-20). Fused pyrrolocarbazoles were then added at various concentrations to a reaction mixture (50 mM HEPES, pH 7.4, 5 mM MnCl2, 5 mM MgCl2, 140 mM NaCl, 16 μM ATP, and 15 ng trkA in a total volume of 1001 μL.). As a negative control, 100 mM EDTA was included in the reaction solution. The plates were then incubated at 37° C. for 15 min. The detection antibody, monoclonal anti-phosphotyrosine antibody (UBI), was added at a dilution of 1:2000 in TBST, and incubated for 1 hour at 37° C. Plates were then washed three times with TBST, followed by a 1 hour incubation at 37° C. with alkaline phosphatase-labeled goat anti-mouse IgG (1:2000 in TBST (Bio-Rad)). After washing three times with TBST followed by two washes with TBS, a colored product was produced by using NADPH as substrate for alkaline phosphatase, and the coupled reactions of diaphorase and alcohol dehydrogenase (GIBCO-BRL ELISA amplification system). The colored product was read at 490 nm in a microplate reader (Biotek).

AT-2 cells = assay: Inhibition of Growth of Prostate Cancer Cell Line (MTS assay); format: cell-based; settings: 72 h, read-out: AT-2 cell growth IC50
Experimental: AT-2 cells are a prostate cancer cell sub-line derived from the Dunning H tumor, graciously provided to us by Dr. John Isaacs (John Hopkins, M. D.). Unlike the Dunning H tumor cells, AT-2 cells can be grown in vitro.
Methods: At-2 cells ([…]) were plated on tissue culture plastic in 96-well plates in the presence of RPMI-1640 medium containing 10% fetal calf serum, 250 nM dexamethasone, 2 mM glutamine, 1 mM sodium pyruvate, and penicillin/streptomycin antibiotics. The next day, compounds were added at 4 concentrations (10, 1, 0.1, 0.01 μM) to determine the approximate IC50 range. Cultures were assayed 3 days later for cell number using the MTS [(3-(4,5-dimethylthiazol-2-yl)-5-(3-carboxymethoxyphenyl)-2-(4-sulfophenyl)-2H-tetrazolium, inner salt)] assay. The MTS assay (purchased as a kit from Promega) measures the formation of an aqueous soluble formazan (detected by a plate reader at 490nm) produced by the bioreduction of a tetrazolium compound (MTS) in metabolically active cells via mitochondrial succinate dehydrogenase. After determining linearity of the substrate incubation time over a range of cell plating densities, the amount of product measured is directly proportional to cell number. MTS (333 ug/ml) and 25 μM phenazine methosulfate are mixed and added directly to the culture medium, and incubated at 37° C. in the 5% CO2 /95% air incubator for 0.5-4 h. Absorbance of the product at 490 nm is read on the BIO-TEK plate reader. Background values were obtained from wells containing culture medium with substrate solution, but no cells. In addition, values were also obtained from wells containing cells plated at day 0 and assayed on the day compound was added (day 1) in order to determine the number of cells at the time compound was added. After the initial dose-finding experiment was completed, subsequent experiments were set up so that there were 3 or more concentrations near the predicted IC50.

[3] = tested on: indoleamine 2,3-dioxygenase (IDO) mRNA in THP-1 cells; assay: Inhibition of Induction By IFNγ of IDO mRNA; format: cell-based; settings: Homo sapiens, compound 400 nM, IFNγ 400 units/ml, IDO/GAPD mRNA ratio, 48 hours, read-out: IDO mRNA, Phosphorimager units, % of IFNγ-treated cells
Experimental: Fused pyrrolocarbazoles in accordance with our invention were tested for their ability to inhibit the induction by IFNγ of indoleamine 2,3-dioxygenase (IDO) mRNA in THP-1 cells, a human monocyte cell line.
Cell Culture: THP-1 cells (American Type Culture Collection, Rockville, Md.), a human monocytic leukemia cell line, were grown in RPMI 1640 medium (Mediatech, Herndon Valley, Va.) with 50 μM 2-mercaptoethanol and 10% fetal bovine serum. Cells were plated in T75 culture flasks, at 4×10^4 cells/cm^2 in 10 ml of medium, and were immediately treated with fused pyrrolocarbazoles at various concentrations. After 30 minutes recombinant (E. coli) IFNγ (Boehringer Mannheim Corporation,Indianapolis, Ind.) was added at 200-400 units/ml. Cells were incubated (37° C., 5% CO2 /95% Air) for 48 hours after treatment.
RNA Isolation: Cells were pelleted by centrifugation (50× g, 7 min.) and medium was decanted. The cells were then washed two times with phosphate buffered saline pH 7.2 (PBS) (Mediatech, Herndon Valley, Va.). The washed cell pellet was lysed in 2 ml RNAzol B (Tel-Test, Inc., Friendswood, Tex.). RNA was isolated by chloroform extraction, precipitated, and washed following the "RNAzol B isolation of RNA" protocol accompanying this product. RNA was then solubilized in H2 O, and the concentration and purity were determined by reading the absorbance at A260 nm and A280 nm. Finally, the RNA was reprecipitated in ethanol, overnight at -20° C.
cDNA Probes: Indoleamine 2,3-dioxygenase (IDO) cDNA was received from Sohan L. Gupta, Ph. D. (Hipple Cancer Research Center, Dayton, Ohio) (see Da., W. & Gupta, S. L. 168 Biochem. Biophys. Res. Commun. 1, 1990 and Hassanain, H. H. et al. 268 J. Biol. Chem. 5077, 1993). Glyceraldehyde-3-phosphate dehydrogenase (GAPD) cDNA was obtained through American Type Culture Collection (Rockville, Md.). These cDNA's were produced and purified using standard methods (see, Sambrook, Fritsch, Maniatis (1989) Molecular Cloning a Laboratory Manual/Second Edition 1, 1.21-1.24, 1.74-1.81, hereinafter in this Example, "Maniatis a") using Qiagen plasmid purification kits (Qiagen Inc., Chatsworth, Calif.). DNA concentration and purity were determined by absorbance at 280 nm and 260 nm. Specific DNA inserts were cut out by standard methods using restriction enzymes, and subsequently separated on agarose gels as in Maniatis (see, Sambrook, Fritsch, Maniatis (1989) Molecular Cloning a Laboratory Manual/Second Edition 1, 6.9-6.15, hereinafter in this Example, "Maniatis b"). cDNA probes were further purified for [^32 P] labeling using the Geneclean II DNA purification kit (BIO 101, Inc., La Jolla, Calif.). Probes were labeled with dCTP-α-^32 P (Amersham Corp., Arlington Heights, Ill.) by random primer labeling, using the Prime-a-GeneLabeling System (Promega Corp., Madison, Wis.).
Analysis and quantification of mRNA: IDO mRNA was detected by Northern blot analysis (see Maniatis a, p. 7.39-7.51) using standard methods. […] Quantification of IDO mRNA was carried out using a phosphorimager (Molecular Dynamics) in which density (i.e., amount of RNA) is expressed as relative phosphorimager units. […] GAPD mRNA measurement by phosphorimager quantification of Northern blots serves as a means to normalize for potential sample to sample differences in the amount of total RNA loaded on gels. […]

[4] = tested on: NT-3 induced ChAT activity of rat basal forebrain cultures; assay: Enhancement of Neurotrophin (NT-3) Activity Assay, ChAT activity in basal forebrain cultures; format: cell-based
Experimental: Fused pyrrolocarbazoles were tested for the ability to enhance the activity of the neurotrophin NT-3 in basal forebrain cultures. ChAT activity was assayed as a measure of cholinergic neuron function and survival. The concentration of NT-3 (100 ng/ml) used in these experiments increased ChAT activity over control cultures (untreated with NT-3 or a fused pyrrolocarbazole) by 140%.
Methods. Basal forebrain cultures were prepared from embryonic rats (embryonic day 17) and dissociated with the neutral protease Dispase™. Cells were plated at a density of 4×10^5 cells/cm^2 on poly-1-ornithine coated plastic tissue culture plates in a mixture of DMEM and F12 media (50/50 v/v GIBCO) supplemented with 5% horse serum and 0.5% fetal bovine serum. Cells were incubated at 37° C. in a humidified atmosphere of 5% CO2 /95% air for 5 days. ChAT activity was measured as described in Example III(A)(1).
Recombinant rat NT-3 was produced by using a recombinant baculovirus expression vector under the control of the polyhedron virus promoter (Fraser, In Vitro Cell. and Dev. Biol. 25:225-235 (1989)). The plasmid pXM-NT3 (Hallbook et al., Neuron 6:845-858 (1991), which contained the rat NT-3 cDNA clone, was provided by Dr. Ira Black (University of Medicine and Dentistry of New Jersey, Piscataway, N.J.). NT-3 cDNA was subcloned into the transfer vector pVL1392 (In Vitrogen Corp., San Diego, Calif.) for recombinant virus production. Recombinant baculovirus was produced as described in Meyer et al. (Meyer at al., J. Neurochem 62:825-833 (1994)).

[5] = Gallus gallus, DRG neuron, read-out: Neuronal Survival (% of Control)
[6] = 16 μM ATP, 37° C., 15 min, read-out: INHIBITION OF trkA KINASE IC50

IC50 (protein kinase C) [nM] | IC50 (trkA tyrosine kinase; [6]) [nM] | IC50 (AT-2 cells; 3 days, MTS) [nM] | SMILES | Spinal Cord ChAT Activity, % of Control, untreated cultures [1] | ChAT Activity (% of Control) ([2]; 100 nM) | viability at 0.25 µM (chick DRG neurons; [5]) [%] | also measured
8000 | > 1000 | > 10000 | O=C1NCc2c1c1c(c3[nH]c4ccc(C=Cc5ccccc5)cc4c23)Cc2ccccc2-1 [Compound I-24, 3-(2-Phenylethenyl)5H,6H,12H,13H-indeno[2,3-a]pyrrolo[3,4-c]carbazole-7(7H)-one] | 236 % of Control | inactive | 167 | activity at 0.25 µM ([2]; Rattus norvegicus, 120 h, 250 nM, read-out: ChAT Activity (% of Control)): 151%; viability at 0.1 µM (chick DRG neurons; Gallus gallus, DRG neuron, 100 nM, read-out: Neuronal Survival (% of Control)): 154%; viability at 0.5 µM (chick DRG neurons; Gallus gallus, DRG neuron, 500 nM, read-out: Neuronal Survival (% of Control)): 163%
100 | – | 380 | O=C1NCc2c3c(c4[nH]c5ccccc5c4c21)Cc1ccccc1-3 [Compound I-3] | 174 % of Control | inactive | – | ChAT Activity (% of Control) ([2]; 250 nM): inactive; activity at 0.5 µM ([2]; Rattus norvegicus, 120 h, 500 nM, read-out: ChAT Activity (% of Control)): 130%
4500 | – | – | O=C1NCc2c1c1c(c3[nH]c4ccc(Br)cc4c23)Cc2ccccc2-1 [Compound I-9, 3-Bromo-5H, 6H, 12H, 13H-indeno[2,3-a]pyrrolo[3,4-c]carbazole-7(7H)one] | 185 % of Control | – | – | mrna remaining at 0.4 µM [3]: 60%
150 | – | > 10000 | O=C1NC(=O)c2c1c1c3ccccc3[nH]c1c1sc3ccccc3c21 [Compound I-20, 6H, 12-Benzo[b]thieno[2,3-a]pyrrolo[3,4-c]carbazole-5,7(5H,7H)dione] | 130 % of Control | – | – | –
150 | > 1000 | 1370 | O=C1NC(=O)c2c1c1c(c3[nH]c4ccc(F)cc4c23)Cc2ccccc2-1 [Compound I-7] | 164 % of Control | – | – | ChAT activity in the absence of NT-3 ([4]; compound added alone to basal forebrain neurons, no NT-3): no effect on ChAT activity; ChAT activity in the presence of NT-3 ([4]; with 100 ng/ml NT-3): enhanced ChAT activity

SMILES | IC50 (protein kinase C) [nM] | IC50 (trkA tyrosine kinase; [6]) [nM] | IC50 (AT-2 cells; 3 days, MTS) [nM] | Spinal Cord ChAT Activity, % of Control, untreated cultures [1] | ChAT Activity (% of Control) ([2]; 100 nM) | viability at 0.25 µM (chick DRG neurons; [5]) [%] | also measured
O=C1NC(=O)c2c1c1c3ccccc3ccc1c1[nH]c3ccccc3c21 [Compound I-15, 6H, 14H-naphthyl[3,4-a]pyrrolo[3,4-c]carbazole-5,7(5H, 7H)-dione] | 50 | – | – | 182 % of Control | – | 132 | Neuronal Survival (% of Control) (chick DRG neurons; 100 nM): inactive; Neuronal Survival (% of Control) (chick DRG neurons; 500 nM): inactive; IC50 (trkA tyrosine kinase): > 1000 nM; IC50 (AT-2 cells): 4300 nM

— patent US5594009A, “Fused pyrrolocarbazoles” (priority 1995, dated 1997)
